Read-outs that look alike come from different tables or passages of the source.
Experiments:
[1] = target: T1, galectin-3 (Homo sapiens, UniProt P17931); assay: intrinsic tryptophan fluorescence spectroscopy titration; also competitive ELISA against asialo-fetuin (IC50 […]) and CD; assay type: binding
T1 construct: gene LGALS3; human recombinant galectin-3 expressed in E. coli

[2] = target: T1, galectin-3; assay: as above; assay type: binding; remark: listed apart in the source

T1 sequence (P17931 2-250): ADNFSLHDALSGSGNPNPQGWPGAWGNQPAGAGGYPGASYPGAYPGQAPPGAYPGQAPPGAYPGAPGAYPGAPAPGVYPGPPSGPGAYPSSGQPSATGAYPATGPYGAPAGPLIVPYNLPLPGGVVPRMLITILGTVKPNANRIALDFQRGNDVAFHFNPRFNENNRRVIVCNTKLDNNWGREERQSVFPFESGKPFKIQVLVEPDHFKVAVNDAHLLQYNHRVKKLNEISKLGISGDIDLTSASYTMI

SMILES | Kd [1] | Kd [2]
C[C@H]1COc2c(N3CCN(C)CC3)c(F)cc3c(=O)c(C(=O)NNc4ccc(N)cc4)cn1c23 [K2] | 18.1 ± 1.5 µM | 
C[C@H]1COc2c(N3CCN(C)CC3)c(F)cc3c(=O)c(C(=O)NNc4cccc(N)c4)cn1c23 [L2] |  | 30.2 ± 1.4 µM
